Laboratory results: US11517604B2, “Method for preparing Plectranthus amboinicus fraction having anti-arthritis activity” (ONENESS BIOTECH CO., priority 2011, dated 2022)

Legend:
Type in all cases: cell-based, human
[1] = tested on: PHA-induced PBMC proliferation; test: Inhibition of PHA-induced PBMC proliferation (MTT assay); conditions: positive control 0.1 uM; PHA 5 μg/mL, 3 days; PHA alone 0.634, without PHA 0.245
Description: (§1) The peripheral blood mononuclear cells (PBMCs) from the blood of healthy adult donors were diluted and isolated by Ficoll-Paque (FP) gradient centrifugation (Amersham Biosciences) at 600 g for 30 min at room temperature. The isolated PBMCs were washed by phosphate buffered saline, re-suspended in 10% heat inactivated fetal bovine serum (FBS), and seeded in 96-well culture plate with a density of […] cells per well for assessing the anti-arthritis activity of the extracts as described herein.
PHA-induced PBMC proliferation was used as a technical platform for the assessment of anti-inflammation efficacy of various extracts of the present invention. Human PBMCs were co-cultured with PHA at a final concentration of 5 μg/mL and various extracts of Plectranthus amboinicus at a final concentration of 0˜90 μg/mL for 3 days. PBMCs treated by dexamethasone (DEX) before stimulation by PHA (5 μg/mL) were also included in the experiment as positive control samples. After cells were incubated for 3 days at 37° C. with humid air containing 5% CO2, MTT (methyl thiazolyl tetrazolium, MTT) assays were carried out to evaluate the proliferation rate of PBMCs. […] The absorbance of each well was detected by a photoelectric colorimeter at the wavelength of 540 nm. […] Three independent experiments were performed, and the data determined by MTT assays were further expressed as IC50.

IL-5 = test: PHA-induced IL-5 release from PBMCs (ELISA); conditions: PHA + 0.1uM DEX; PHA alone 161.9, without PHA 37.0
Description: as §1
(§2) PHA-induced PBMC proliferation was used as a technical platform for the assessment of anti-inflammation efficacy of various extracts of the present invention. Human PBMCs were co-cultured with PHA at a final concentration of 5 μg/mL and various extracts of Plectranthus amboinicus at a final concentration of 0˜90 μg/mL for 3 days. […] The absorbance of each well was detected by a photoelectric colorimeter at the wavelength of 540 nm. […] Three independent experiments were performed, and the data determined by MTT assays were further expressed as IC50.
(§3) On Day 3, cell supernatant was collected, divided, and stored at −20° C. until analysis. The amounts of TNF-α, interleukin IL-6, IFN-γ, and IL-5 in the supernatant were measured using Quantikine ELISA kits (R & D Systems, Minneapolis, Minn.) following the manufacturer's instruction.

TNF-α = test: PHA-induced TNF-α release from PBMCs (ELISA); conditions: PHA + 0.1uM DEX; PHA alone 4031.3, without PHA 271.6
Description: as §1, §2, §3

IFN-γ = test: PHA-induced IFN-γ release from PBMCs (ELISA); conditions: PHA + 0.1uM DEX; PHA alone 176.8, without PHA 25.0
Description: as §1, §2, §3

IL-6 = test: PHA-induced IL-6 release from PBMCs (ELISA); conditions: PHA + 0.1uM DEX; PHA alone 703.0, without PHA 157
Description: as §1, §2, §3

With `C[C@@H]1C[C@H]2[C@@H]3CCC4=CC(=O)C=C[C@]4(C)[C@@]3(F)[C@@H](O)C[C@]2(C)[C@@]1(O)C(=O)CO` [DEX, dexamethasone] the “PHA-induced PBMC proliferation, MTT assay data (absorbance 540 nm)” value [1] was 0.242, the “Concentration of IL-5 released from PBMCs” value (IL-5) was 37 pg/mL and the “Concentration of TNF-α released from PBMCs” value (TNF-α) was 272.5 pg/mL. The “Concentration of IFN-γ released from PBMCs” value (IFN-γ) was 25 pg/mL and the “Concentration of IL-6 released from PBMCs” value (IL-6) was 157 pg/mL.
